Test results as given in patent US9475778B2, “Sulfate of 5-hydroxy-1H-imidazole-4-carboxamide” (FUJIFILM Corporation, priority 2013, dated 2016).

Key:
Assay type in all cases: physicochemical
[1] = Storage stability test (1) under conditions of 60° C. and relative humidity of 75% (coloring); conditions: glass bottle, relative humidity 75%, 2 weeks, compared with crystals of Comparative Example 1
Protocol: Storage Stability Test (1) Under Conditions of 60° C. and Relative Humidity of 75%
As test substances, the crystals obtained in Examples 1 and 2 and Comparative Example 1 were chosen.
Each test substance (about 0.3 g) was put into a glass bottle, and stored under the conditions of 60° C. and relative humidity of 75% for 2 weeks.

[2] = Storage stability test (2) under conditions of 60° C. and relative humidity of 75% (purity by HPLC); conditions: relative humidity 75%, 2 weeks
Protocol: The purities are represented in terms of HPLC area %. The HPLC measurement was performed by using Prominence (Shimadzu) under the following conditions.
Storage Stability Test (2) Under Conditions of 60° C. and Relative Humidity of 75%
As a test substance, the crystals obtained in Example 1 were chosen.
The test substance (about 0.3 g) was put into a glass bottle, and stored under the conditions of 60° C. and relative humidity of 75% for 2 weeks. After completion of the test, purity of the substance was measured by HPLC.

[3] = Storage stability test (3) under conditions of 60° C. and relative humidity of 75% (mass change, color appearance); conditions: relative humidity 75%, 2 weeks; for Mass change ratio (%): glass bottle, {(A1−A0)/A0}×100
Protocol: Storage Stability Test (3) Under Conditions of 60° C. and Relative Humidity of 75%
As test substances, the crystals obtained in Example 2 and Comparative Example 2 were chosen.
Each test substance (about 0.3 g) was put into a glass bottle, and stored under the conditions of 60° C. and relative humidity of 75% for 2 weeks, and then mass was measured. Mass change ratio of each test substance was calculated according to the following equation. Mass change ratio(%)={(A1−A0)/A0}×100 A0: Mass (g) of test substance before test A1: Mass (g) of test substance after test
Change of color appearance of the test substances was also visually evaluated.

[4] = Storage for 2 weeks under conditions of 25° C. and relative humidity of 97%; conditions: relative humidity 97%

SMILES	coloring after storage [1]	purity after storage (in words) ([2]; evaluated in the same manner as Test Example 2)	Mass change ratio (%) [3]	Change of color appearance ([3]; visually evaluated)	appearance change after storage [4]	purity of the test substance after storage (HPLC) ([2]; glass bottle, HPLC area %) [%]
NC(=O)c1nc[nH]c1O.O=S(=O)(O)O [Example 2, sulfate of 5-hydroxy-1H-imidazole-4-carboxamide]	coloring in an obviously lower degree	high purity even after the storage for 2 weeks	−0.1%	No change (white)	did not show appearance change	
CS(=O)(=O)O.NC(=O)c1nc[nH]c1O [Comparative Example 2, Methanesulfonate of 5-hydroxy-1H-imidazole-4-carboxamide, reference compound]			+16.2%		deliquesced	
NC(=O)c1nc[nH]c1O.O=S(=O)(O)O [Example 1, sulfate of 5-hydroxy-1H-imidazole-4-carboxamide]						99.97
